{
  "source": "PubChem BioAssay (NCI)",
  "note": "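These data come from cells grown in 96-well plates and exposed to compound for 48 hours at five concentrations. The concentration for full growth arrest is given as TGI.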",
  "data": [
    {"system": "CCRF-CEM leukemia", "assay": "NCI anticancer screen, dose series, 48 h", "units": {"TGI": "µM"}, "values": [
      {"compound": "COC(=O)C(=O)C(C(=O)C(=O)Nc1cc([N+](=O)[O-])ccc1C#N)c1nc2ccccc2[nH]c1=O", "note": "(stereo not drawn)", "TGI": "> 100"},
      {"compound": "CC(C)(C)C1(O)Cc2ccccc2C(=O)O1", "note": "(stereo not drawn)", "TGI": "> 100"}
    ]},
    {"system": "MALME-3M melanoma", "assay": "NCI anticancer screen, dose series, 48 h", "units": {"TGI": "µM"}, "values": [
      {"compound": "O=c1c2ccccc2c2c3c1cccc3c1cccc3c(=O)c4ccccc4c2c31", "TGI": "> 100"},
      {"compound": "Clc1ccc(CNc2nc3ccccc3nc2-c2cccs2)c(Cl)c1", "TGI": "> 100"},
      {"compound": "COC(=O)C(=O)C(C(=O)C(=O)Nc1cc([N+](=O)[O-])ccc1C#N)c1nc2ccccc2[nH]c1=O", "note": "(stereo not drawn)", "TGI": "> 100"},
      {"compound": "CC(C)(C)C1(O)Cc2ccccc2C(=O)O1", "note": "(stereo not drawn)", "TGI": "> 100"}
    ]},
    {"system": "OVCAR-5 ovarian", "assay": "NCI anticancer screen, dose series, 48 h", "units": {"TGI": "µM"}, "values": [
      {"compound": "O=c1c2ccccc2c2c3c1cccc3c1cccc3c(=O)c4ccccc4c2c31", "TGI": "> 100"},
      {"compound": "Clc1ccc(CNc2nc3ccccc3nc2-c2cccs2)c(Cl)c1", "TGI": "> 100"},
      {"compound": "CC(C)(C)C1(O)Cc2ccccc2C(=O)O1", "note": "(stereo not drawn)", "TGI": "> 100"}
    ]},
    {"system": "OVCAR-8 ovarian", "assay": "NCI anticancer screen, dose series, 48 h", "units": {"TGI": "µM"}, "values": [
      {"compound": "O=c1c2ccccc2c2c3c1cccc3c1cccc3c(=O)c4ccccc4c2c31", "TGI": "> 100"},
      {"compound": "Clc1ccc(CNc2nc3ccccc3nc2-c2cccs2)c(Cl)c1", "TGI": "> 100"},
      {"compound": "COC(=O)C(=O)C(C(=O)C(=O)Nc1cc([N+](=O)[O-])ccc1C#N)c1nc2ccccc2[nH]c1=O", "note": "(stereo not drawn)", "TGI": "> 100"},
      {"compound": "CC(C)(C)C1(O)Cc2ccccc2C(=O)O1", "note": "(stereo not drawn)", "TGI": "> 100"}
    ]},
    {"system": "HL-60(TB) leukemia", "assay": "NCI anticancer screen, dose series, 48 h", "units": {"TGI": "µM"}, "values": [
      {"compound": "Clc1ccc(CNc2nc3ccccc3nc2-c2cccs2)c(Cl)c1", "TGI": "> 100"},
      {"compound": "COC(=O)C(=O)C(C(=O)C(=O)Nc1cc([N+](=O)[O-])ccc1C#N)c1nc2ccccc2[nH]c1=O", "note": "(stereo not drawn)", "TGI": "> 100"},
      {"compound": "CC(C)(C)C1(O)Cc2ccccc2C(=O)O1", "note": "(stereo not drawn)", "TGI": "> 100"}
    ]},
    {"system": "SF-268 CNS", "assay": "NCI anticancer screen, dose series, 48 h", "units": {"TGI": "µM"}, "values": [
      {"compound": "O=c1c2ccccc2c2c3c1cccc3c1cccc3c(=O)c4ccccc4c2c31", "TGI": "> 100"},
      {"compound": "Clc1ccc(CNc2nc3ccccc3nc2-c2cccs2)c(Cl)c1", "TGI": "> 100"},
      {"compound": "COC(=O)C(=O)C(C(=O)C(=O)Nc1cc([N+](=O)[O-])ccc1C#N)c1nc2ccccc2[nH]c1=O", "note": "(stereo not drawn)", "TGI": "> 100"},
      {"compound": "CC(C)(C)C1(O)Cc2ccccc2C(=O)O1", "note": "(stereo not drawn)", "TGI": "> 100"}
    ]},
    {"system": "HOP-18 NSCLC", "assay": "NCI anticancer screen, dose series, 48 h", "units": {"TGI": "µM"}, "values": [
      {"compound": "O=c1c2ccccc2c2c3c1cccc3c1cccc3c(=O)c4ccccc4c2c31", "TGI": "> 100"},
      {"compound": "Clc1ccc(CNc2nc3ccccc3nc2-c2cccs2)c(Cl)c1", "TGI": "> 100"},
      {"compound": "COC(=O)C(=O)C(C(=O)C(=O)Nc1cc([N+](=O)[O-])ccc1C#N)c1nc2ccccc2[nH]c1=O", "note": "(stereo not drawn)", "TGI": "> 100"},
      {"compound": "CC(C)(C)C1(O)Cc2ccccc2C(=O)O1", "note": "(stereo not drawn)", "TGI": "> 100"}
    ]},
    {"system": "HCT-15 colon", "assay": "NCI anticancer screen, dose series, 48 h", "units": {"TGI": "µM"}, "values": [
      {"compound": "O=c1c2ccccc2c2c3c1cccc3c1cccc3c(=O)c4ccccc4c2c31", "TGI": "> 100"},
      {"compound": "Clc1ccc(CNc2nc3ccccc3nc2-c2cccs2)c(Cl)c1", "TGI": "> 100"},
      {"compound": "COC(=O)C(=O)C(C(=O)C(=O)Nc1cc([N+](=O)[O-])ccc1C#N)c1nc2ccccc2[nH]c1=O", "note": "(stereo not drawn)", "TGI": "> 100"},
      {"compound": "CC(C)(C)C1(O)Cc2ccccc2C(=O)O1", "note": "(stereo not drawn)", "TGI": "> 100"}
    ]},
    {"system": "CAKI-1 renal", "assay": "NCI anticancer screen, dose series, 48 h", "units": {"TGI": "µM"}, "values": [
      {"compound": "O=c1c2ccccc2c2c3c1cccc3c1cccc3c(=O)c4ccccc4c2c31", "TGI": "> 100"},
      {"compound": "COC(=O)C(=O)C(C(=O)C(=O)Nc1cc([N+](=O)[O-])ccc1C#N)c1nc2ccccc2[nH]c1=O", "note": "(stereo not drawn)", "TGI": "> 100"},
      {"compound": "CC(C)(C)C1(O)Cc2ccccc2C(=O)O1", "note": "(stereo not drawn)", "TGI": "> 100"}
    ]},
    {"system": "ACHN renal", "assay": "NCI anticancer screen, dose series, 48 h", "units": {"TGI": "µM"}, "values": [
      {"compound": "O=c1c2ccccc2c2c3c1cccc3c1cccc3c(=O)c4ccccc4c2c31", "TGI": "> 100"},
      {"compound": "Clc1ccc(CNc2nc3ccccc3nc2-c2cccs2)c(Cl)c1", "TGI": "> 100"},
      {"compound": "COC(=O)C(=O)C(C(=O)C(=O)Nc1cc([N+](=O)[O-])ccc1C#N)c1nc2ccccc2[nH]c1=O", "note": "(stereo not drawn)", "TGI": "> 100"},
      {"compound": "CC(C)(C)C1(O)Cc2ccccc2C(=O)O1", "note": "(stereo not drawn)", "TGI": "> 100"}
    ]},
    {"system": "SK-MEL-2 melanoma", "assay": "NCI anticancer screen, dose series, 48 h", "units": {"TGI": "µM"}, "values": [
      {"compound": "O=c1c2ccccc2c2c3c1cccc3c1cccc3c(=O)c4ccccc4c2c31", "TGI": "> 100"},
      {"compound": "Clc1ccc(CNc2nc3ccccc3nc2-c2cccs2)c(Cl)c1", "TGI": "> 100"},
      {"compound": "CC(C)(C)C1(O)Cc2ccccc2C(=O)O1", "note": "(stereo not drawn)", "TGI": "> 100"}
    ]},
    {"system": "SW-620 colon", "assay": "NCI anticancer screen, dose series, 48 h", "units": {"TGI": "µM"}, "values": [
      {"compound": "O=c1c2ccccc2c2c3c1cccc3c1cccc3c(=O)c4ccccc4c2c31", "TGI": "> 100"},
      {"compound": "Clc1ccc(CNc2nc3ccccc3nc2-c2cccs2)c(Cl)c1", "TGI": "> 100"},
      {"compound": "COC(=O)C(=O)C(C(=O)C(=O)Nc1cc([N+](=O)[O-])ccc1C#N)c1nc2ccccc2[nH]c1=O", "note": "(stereo not drawn)", "TGI": "> 100"},
      {"compound": "CC(C)(C)C1(O)Cc2ccccc2C(=O)O1", "note": "(stereo not drawn)", "TGI": "> 100"}
    ]},
    {"system": "UACC-62 melanoma", "assay": "NCI anticancer screen, dose series, 48 h", "units": {"TGI": "µM"}, "values": [
      {"compound": "O=c1c2ccccc2c2c3c1cccc3c1cccc3c(=O)c4ccccc4c2c31", "TGI": "> 100"},
      {"compound": "COC(=O)C(=O)C(C(=O)C(=O)Nc1cc([N+](=O)[O-])ccc1C#N)c1nc2ccccc2[nH]c1=O", "note": "(stereo not drawn)", "TGI": "> 100"},
      {"compound": "CC(C)(C)C1(O)Cc2ccccc2C(=O)O1", "note": "(stereo not drawn)", "TGI": "> 100"}
    ]},
    {"system": "EKVX NSCLC", "assay": "NCI anticancer screen, dose series, 48 h", "units": {"TGI": "µM"}, "values": [
      {"compound": "O=c1c2ccccc2c2c3c1cccc3c1cccc3c(=O)c4ccccc4c2c31", "TGI": "> 100"},
      {"compound": "Clc1ccc(CNc2nc3ccccc3nc2-c2cccs2)c(Cl)c1", "TGI": "> 100"},
      {"compound": "COC(=O)C(=O)C(C(=O)C(=O)Nc1cc([N+](=O)[O-])ccc1C#N)c1nc2ccccc2[nH]c1=O", "note": "(stereo not drawn)", "TGI": "> 100"},
      {"compound": "CC(C)(C)C1(O)Cc2ccccc2C(=O)O1", "note": "(stereo not drawn)", "TGI": "> 100"}
    ]},
    {"system": "OVCAR-3 ovarian", "assay": "NCI anticancer screen, dose series, 48 h", "units": {"TGI": "µM"}, "values": [
      {"compound": "O=c1c2ccccc2c2c3c1cccc3c1cccc3c(=O)c4ccccc4c2c31", "TGI": "> 100"},
      {"compound": "Clc1ccc(CNc2nc3ccccc3nc2-c2cccs2)c(Cl)c1", "TGI": "> 100"},
      {"compound": "COC(=O)C(=O)C(C(=O)C(=O)Nc1cc([N+](=O)[O-])ccc1C#N)c1nc2ccccc2[nH]c1=O", "note": "(stereo not drawn)", "TGI": "> 100"},
      {"compound": "CC(C)(C)C1(O)Cc2ccccc2C(=O)O1", "note": "(stereo not drawn)", "TGI": "> 100"}
    ]}
  ]
}
